Experiments:
[1] = In vitro metabolic stability in rat liver microsomes; assay type: in vitro ADME; conditions: rat liver microsomes (male Wistar Han), NADPH, 37° C.; read-out: Intrinsic clearance rate
Description: The concentration of the compound in the reaction system was determined by LC/MS/MS, so as to calculate the intrinsic clearance rate of the test compound and to evaluate the in vitro metabolic stability in rat liver microsomes.
222.5 μL, 1.1236 mg/mL of a mixed solution of rat liver microsomes (male Wistar Han strain, purchased from Corning, catalog number 452511) and 25 μL, 10 mM of NADPH were added into the incubation plate. The mixture was mixed by vortexing for 10 seconds. The plate was incubated in a water bath at 37° C. for 8 minutes. 2.5 μL, 100 μM of the test compound or positive control was added to the incubation plate to start the reaction. The mixture was mixed by vortexing for 12 seconds, and incubated in a water bath at 37° C. The reaction was stopped by transferring 20 μL of the incubation system to a stop plate containing 100 μL of cold stop solution at 0.5, 5, 10, 15, 20 and 30 minutes. The mixture was mixed by vortexing for 2 minutes. The stop plate was centrifuged at 4000 rpm for 20 minutes, then left to stand at 4° C. for 30 minutes, and then centrifuged at 4000 rpm for 20 minutes. 40 μL of the supernatant of each compound was transferred to a 96-well injection plate, and 160 μL of pure water was added to dilute the samples.
The obtained samples were quantified by ion chromatogram, and the residual rate was calculated according to the peak area of the test compounds or positive control. The slope k was determined by linear regression of the natural logarithm of the residual rate to the incubation time by using Microsoft Excel.
The in vitro half-life (in vitro t1/2) was calculated from the slope: in vitro t1/2=−(0.693/k)
The following equation was used to convert in vitro half-life into intrinsic clearance rate (in vitro CLint, μL/min/mg protein):
in vitro CLint=(0.693/t1/2)×(incubation volume (L)/protein amount (mg))

[2] = biological target: T1, full-length SHP2 (aa 1-593) (Homo sapiens, UniProt Q06124); test: Activity on SHP2 phosphatase (DiFMUP fluorescence)
T1 sequence (Q06124 1-593): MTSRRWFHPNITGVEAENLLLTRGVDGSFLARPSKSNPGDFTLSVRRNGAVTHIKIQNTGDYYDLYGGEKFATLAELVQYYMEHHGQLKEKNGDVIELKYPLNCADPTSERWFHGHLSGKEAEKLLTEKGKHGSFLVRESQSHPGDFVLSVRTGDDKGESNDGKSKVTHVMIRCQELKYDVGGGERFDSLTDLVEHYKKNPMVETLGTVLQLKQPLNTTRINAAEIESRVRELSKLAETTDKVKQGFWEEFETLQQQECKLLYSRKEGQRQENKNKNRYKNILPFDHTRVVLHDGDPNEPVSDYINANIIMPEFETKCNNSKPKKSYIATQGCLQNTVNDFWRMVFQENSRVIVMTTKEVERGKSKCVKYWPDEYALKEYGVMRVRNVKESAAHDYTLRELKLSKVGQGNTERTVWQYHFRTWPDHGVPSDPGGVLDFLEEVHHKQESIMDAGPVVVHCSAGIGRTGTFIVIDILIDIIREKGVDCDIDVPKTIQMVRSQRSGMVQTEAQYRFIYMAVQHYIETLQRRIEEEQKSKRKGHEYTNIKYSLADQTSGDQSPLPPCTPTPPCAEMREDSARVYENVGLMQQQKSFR
Description: 0.2 nM recombinantly expressed full-length SHP2 (aa 1-593), 0.5 nM activated polypeptide IRS1 with dual phosphorylation sites (sequence: H2N-LN(pY)IDLDLY(dPEG8)LST(pY)ASINFQK-amide), and a series of concentrations of the test compound (final concentrations of 1 μM, 0.3 μM, 0.1 μM, 0.03 μM, 0.01 μM, 0.003 μM, 0.001 M, 0.0003 μM, 0.0001 μM and 0.00003 μM) were added into the phosphatase reaction solution (60 mM HEPES, PH 7.5 0.005% Brij-35, 75 mM NaCl, 75 mM KCl, 1 mM EDTA, 5 mM DTT), followed by shaking (350 rpm) at room temperature for 30 minutes. Then the reaction substrate DiFMUP was added at a final concentration of 30 μM, and the reaction solution was reacted at room temperature for 30 minutes. Then the phosphatase reaction was stopped by adding 5 μL of the reaction stop solution (60 mM HEPES, pH 7.5, 0.2% SDS). Ex358 nm/Em455 fluorescence value was read on the fluorescence plate reader MD SpectraMax.
The IC50 value of compounds was calculated by using the four-parameter logit method. […] Different concentrations correspond to different inhibition rates of phosphatase activity. A reverse curve was plotted and the IC50 of the inhibitors was calculated from the curve. The IC50 of compounds was calculated by using Primer premier 6.0.

[3] = In vivo pharmacokinetics in rats (gavage); design: species or system SD rats; conditions: original drug, rat, 7.5 mpk
Description: (§1) Rats were used as the test animals. The plasma drug concentration at different times after the rats were given the compounds of the invention by gavage was determined by using the LC/MS/MS method. The in vivo pharmacokinetic behavior of the compounds of the present invention in rats was studied, and pharmacokinetic characteristics thereof were evaluated.
Test animals: 3 healthy, 6-8 weeks old male SD rats in each group
A certain amount of drug was weighed, and 0.5% by mass of hypromellose, 0.1% by volume of Tween 80 and 99.4% by volume of water were added thereto to formulate a white suspension at 1 mg/mL.
SD rats were fasted overnight, then the drug was administered by gavage. The dosage of reference 1 was 7.5 mg/kg, and the dosage of Example 1 was 5 mg/kg.
(§2) Rats were administered the compounds of the present invention by gavage. At 0.25, 0.5, 1, 2, 4, 8 and 24 hours after administration, 0.2 mL of blood was collected from the jugular vein and placed in a test tube containing EDTA-K2. The tube was centrifuged at 4° C., 4000 rpm for 5 minutes to separate the plasma, which was stored at −75° C.
Determination of the content of the test compounds in rat plasma after administration of different concentrations of drugs by gavage: 50 μL of rat plasma at each time after administration was taken, and 200 μL of a solution of the internal standard dexamethasone in acetonitrile (50 ng/mL). The mixture was mixed by vortexing for 30 seconds, centrifuged at 4° C., 4700 rpm for 15 minutes. The supernatant of the plasma samples were collected and diluted three times with water, and 2.0 μL was taken for the LC/MS/MS analysis.

[4] = In vivo pharmacokinetics in cynomolgus monkeys (gavage); conditions: male, plasma, po, 5 mg/kg, original drug, cynomolgus monkey, 5 mpk
Description: as §1, with “Cynomolgus monkeys” for “Rats”, “cynomolgus monkeys” for “rats”
Test animals: 3 healthy, 2-5 years old male cynomolgus monkeys in each group;
Administration by gavage: a certain amount of drug was weighed, and 0.5% by mass of hypromellose, 0.1% by volume of Tween 80 and 99.4% by volume of water were added thereto to formulate a white suspension at 1 mg/mL.
The cynomolgus monkeys were fasted overnight, and then the drug was administered by gavage at a dose of 5 mg/kg.
as §2, with “Cynomolgus monkeys were” for “Rats were”, “the peripheral” for “the jugular”, “at 2 to 8°” for “at 4°”, “C., 2000” for “C., 4000”, “for 10” for “for 5”
Determination of the content of the test compounds in cynomolgus monkey plasma after administration of different concentrations of drugs by gavage: 55 μL of cynomolgus monkey plasma at each time after administration was taken, and 200 μL of a solution of the internal standard verapamil or dexamethasone in acetonitrile. The mixture was mixed by vortexing for 30 seconds, centrifuged at 4° C., 3900 rpm for 15 minutes. The supernatant of the plasma samples were collected and diluted three times with water, and 15 μL was taken for LC/MS/MS analysis.

CYP3A4/5 = test: CYP inhibition in mixed human liver microsomes, CYP3A4/5 (midazolam); assay type: in vitro ADME; conditions: mixed human liver microsomes (150 donors), pH 7.4, probe midazolam (3 μM), mixed human liver microsomes 0.2 mg/mL, read-out: Median inhibitory concentration (IC50) CYP 3A4/5
Description: (§3) Mixed human liver microsomes from 150 donors (purchased from Corning, catalog number 452117) were used to evaluate the representative substrate metabolic responses of the five main human CYP subtypes (CYP1A2, CYP2C9, CYP2C19, CYP2D6 and CYP3A4/5). The influence of different concentrations of test compounds on the metabolic responses of phenacetin (CYP1A2), diclofenac sodium (CYP2C9), S-mephenytoin (CYP2C19), bufurolol hydrochloride (2D6) and midazolam (CYP3A4/5) was determined by liquid chromatography tandem mass spectrometry (LC/MS/MS).
(§4) 200 μL of the reaction system (100 mmol/L phosphate buffer, pH 7.4, containing 0.3% DMSO, 0.6% acetonitrile and 0.1% methanol by volume respectively) with 30 µM phenacetin, 10 μM diclofenac sodium, 35 μM S-mephenytoin, 5 μM bufurolol hydrochloride, 3 μM midazolam, 1 mM NADPH, test compound (at a concentration of 0.1, 0.3, 1, 3, 10 and 30 μmol/L respectively) or positive compound or blank control and mixed human liver microsomes (0.2 mg/mL) was incubated at 37° C. for 5 minutes. […]
(§5) The peak area was calculated based on the chromatograms. The residual activity ratio (%) was calculated using the following equation: […]
(§6) The CYP median inhibitory concentration (IC50) was calculated by Excel XLfit 5.3.1.3.

CYP2D6 = biological target: T2, CYP2D6 (Homo sapiens, UniProt P10635); test: CYP inhibition in mixed human liver microsomes, CYP2D6 (bufurolol hydrochloride); assay type: in vitro ADME; conditions: mixed human liver microsomes 0.2 mg/mL, bufurolol hydrochloride; read-out: Median inhibitory concentration (IC50) CYP 2D6
T2 construct: Mixed human liver microsomes from 150 donors; tissue Corning 452117; host or cells: pooled human liver microsomes (150 donors)
T2 sequence (P10635 whole entry): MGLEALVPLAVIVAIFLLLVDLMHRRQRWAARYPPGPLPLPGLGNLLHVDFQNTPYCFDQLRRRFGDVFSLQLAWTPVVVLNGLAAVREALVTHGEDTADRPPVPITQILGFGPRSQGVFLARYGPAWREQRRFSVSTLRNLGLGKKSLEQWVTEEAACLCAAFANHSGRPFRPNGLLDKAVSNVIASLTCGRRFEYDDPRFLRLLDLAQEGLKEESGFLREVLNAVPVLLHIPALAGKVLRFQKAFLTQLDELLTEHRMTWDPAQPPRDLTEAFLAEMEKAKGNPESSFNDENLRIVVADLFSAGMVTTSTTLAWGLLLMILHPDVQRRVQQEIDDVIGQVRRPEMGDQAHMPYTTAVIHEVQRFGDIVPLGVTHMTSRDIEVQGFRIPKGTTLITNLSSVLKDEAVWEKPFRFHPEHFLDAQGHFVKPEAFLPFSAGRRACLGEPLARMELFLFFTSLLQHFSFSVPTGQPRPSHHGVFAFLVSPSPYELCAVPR
Description: as §3, §4, §5, §6

CYP2C9 = biological target: T3, CYP2C9 (Homo sapiens, UniProt P11712); test: CYP inhibition in mixed human liver microsomes, CYP2C9 (diclofenac sodium); assay type: in vitro ADME; conditions: mixed human liver microsomes 0.2 mg/mL, diclofenac sodium; read-out: Median inhibitory concentration (IC50) CYP 2C9
T3 construct: Mixed human liver microsomes from 150 donors; tissue Corning 452117; host or cells: pooled human liver microsomes (150 donors)
T3 sequence (P11712 whole entry): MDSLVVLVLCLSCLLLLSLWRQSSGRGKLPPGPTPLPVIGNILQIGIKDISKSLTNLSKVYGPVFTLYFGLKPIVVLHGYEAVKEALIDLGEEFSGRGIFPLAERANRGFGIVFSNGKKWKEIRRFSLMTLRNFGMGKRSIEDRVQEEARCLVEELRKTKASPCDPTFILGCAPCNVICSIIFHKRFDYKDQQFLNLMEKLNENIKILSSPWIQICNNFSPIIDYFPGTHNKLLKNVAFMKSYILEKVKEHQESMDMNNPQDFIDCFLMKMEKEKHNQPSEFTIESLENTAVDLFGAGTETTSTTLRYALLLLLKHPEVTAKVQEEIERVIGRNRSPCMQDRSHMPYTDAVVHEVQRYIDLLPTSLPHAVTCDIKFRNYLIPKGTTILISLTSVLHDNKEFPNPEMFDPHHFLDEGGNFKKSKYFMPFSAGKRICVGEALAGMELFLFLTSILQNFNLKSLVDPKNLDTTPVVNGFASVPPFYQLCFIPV
Description: as §3, §4, §5, §6

CYP1A2 = biological target: T4, CYP1A2 (Homo sapiens, UniProt P05177); test: CYP inhibition in mixed human liver microsomes, CYP1A2 (phenacetin); assay type: in vitro ADME; conditions: mixed human liver microsomes 0.2 mg/mL, phenacetin; read-out: Median inhibitory concentration (IC50) CYP 1A2
T4 construct: Mixed human liver microsomes from 150 donors; tissue Corning 452117; host or cells: pooled human liver microsomes (150 donors)
T4 sequence (P05177 1-516): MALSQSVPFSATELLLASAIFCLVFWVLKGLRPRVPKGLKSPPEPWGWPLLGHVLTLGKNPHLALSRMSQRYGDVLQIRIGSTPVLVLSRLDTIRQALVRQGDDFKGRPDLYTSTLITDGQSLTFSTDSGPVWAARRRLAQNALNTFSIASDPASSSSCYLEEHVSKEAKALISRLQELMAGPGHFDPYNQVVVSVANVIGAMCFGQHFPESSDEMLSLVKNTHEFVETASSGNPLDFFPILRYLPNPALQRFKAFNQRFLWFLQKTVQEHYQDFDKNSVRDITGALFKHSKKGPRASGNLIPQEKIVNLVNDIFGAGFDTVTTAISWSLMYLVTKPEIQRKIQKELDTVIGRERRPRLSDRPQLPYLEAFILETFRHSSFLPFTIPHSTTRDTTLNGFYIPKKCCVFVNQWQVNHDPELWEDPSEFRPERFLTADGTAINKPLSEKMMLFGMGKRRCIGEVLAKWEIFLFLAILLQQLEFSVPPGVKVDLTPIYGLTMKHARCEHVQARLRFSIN
Description: as §3, §4, §5, §6

CYP2C19 = biological target: T5, CYP2C19 (Homo sapiens, UniProt P33261); test: CYP inhibition in mixed human liver microsomes, CYP2C19 (S-mephenytoin); assay type: in vitro ADME; conditions: mixed human liver microsomes 0.2 mg/mL, S-mephenytoin; read-out: Median inhibitory concentration (IC50) CYP 2C19
T5 construct: Mixed human liver microsomes from 150 donors; tissue Corning 452117; host or cells: pooled human liver microsomes (150 donors)
T5 sequence (P33261 whole entry): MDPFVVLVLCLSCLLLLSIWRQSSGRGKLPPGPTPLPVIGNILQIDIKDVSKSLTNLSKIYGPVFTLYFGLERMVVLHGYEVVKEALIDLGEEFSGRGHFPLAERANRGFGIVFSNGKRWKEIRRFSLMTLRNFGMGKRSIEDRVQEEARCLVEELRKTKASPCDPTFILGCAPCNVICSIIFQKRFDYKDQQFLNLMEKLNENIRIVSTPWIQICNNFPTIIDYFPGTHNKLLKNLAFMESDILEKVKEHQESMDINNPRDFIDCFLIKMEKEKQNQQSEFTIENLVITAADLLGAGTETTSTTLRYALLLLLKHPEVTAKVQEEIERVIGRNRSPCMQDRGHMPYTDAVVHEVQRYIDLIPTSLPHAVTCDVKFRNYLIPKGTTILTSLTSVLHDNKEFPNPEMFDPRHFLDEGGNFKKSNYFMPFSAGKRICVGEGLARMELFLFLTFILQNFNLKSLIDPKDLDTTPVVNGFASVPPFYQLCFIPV
Description: as §3, §4, §5, §6

`[2H]CNc1nccc(Sc2c(C)nc(N3CCC4(CC3)Cc3ncccc3[C@H]4N)n3ccnc23)c1Cl` [Example 6, (S)-1′-(8-((3-Chloro-2-((methyl-d)amino)pyridin-4-yl)thio)-7-methylimidazo[1,2-c]pyrimidin-5-yl)-5,7-dihydrospiro[cyclopenta[b]pyridine-6,4′-piperidin]-5-amine] showed a microsomal CLint at 1 µM [1] of 34.7 µL/min/mg and an IC50 [2] of 0.0047 µM.
In the case of `CNc1nccc(Sc2c(C)nc(N3CCC4(CC3)Cc3ncccc3[C@H]4N)n3ccnc23)c1Cl` [Example 2, (S)-1′-(8-((3-Chloro-2-(methylamino)pyridin-4-yl)thio)-7-methylimidazo[1,2-c]pyrimidin-5-yl)-5,7-dihydrospiro[cyclopenta[b]pyridine-6,4′-piperidin]-5-amine], the microsomal CLint at 1 µM [1] is reported as 19.2 µL/min/mg, the AUC ([3]; male, SD, plasma, po, 7.5 mg/kg, read-out: Area under curve AUC) is reported as 4250 ng·h/mL and the Cmax ([3]; male, SD, plasma, po, 7.5 mg/kg, read-out: Maximum blood conc. Cmax) is reported as 500 ng/mL. The “Area under curve of unit dose AUC/D” value [3] was 567 ng*h/mL per mg/kg, the AUC ([4]; read-out: Area under curve AUC) was 71000 ng·h/mL and the Cmax ([4]; read-out: Maximum blood conc. Cmax) was 12700 ng/mL.
With `Nc1nccc(Sc2cnc(N3CCC4(CC3)Cc3ncccc3[C@H]4N)n3ccnc23)c1Cl` [Example 1, (S)-1′-(8-((2-Amino-3-chloropyridin-4-yl)thio)imidazo[1,2-c]pyrimidin-5-yl)-5,7-dihydrospiro[cyclopenta[b]pyridine-6,4′-piperidin]-5-amine] the IC50 at 5 min (CYP3A4/5) was > 20 µM, the IC50 (CYP2D6) was > 20 µM and the IC50 (CYP2C9) was > 20 µM. For the same compound, the IC50 (CYP1A2) was 9.21 µM and the IC50 (CYP2C19) was > 20 µM.
`[2H]C([2H])Nc1nccc(Sc2c(C)nc(N3CCC4(CC3)Cc3ncccc3[C@H]4N)n3ccnc23)c1Cl` [Example 5, (S)-1′-(8-((3-Chloro-2-((methyl-d2)amino)pyridin-4-yl)thio)-7-methylimidazo[1,2-c]pyrimidin-5-yl)-5,7-dihydrospiro[cyclopenta[b]pyridine-6,4′-piperidin]-5-amine] showed a microsomal CLint at 1 µM [1] of 26.6 µL/min/mg and an IC50 [2] of 0.0048 µM.
